From patent US12378224B2 (Dong-A Socio Holdings Co., Ltd., priority 2016, dated 2025)

Target: human MER (528-end) (Homo sapiens (Human), UniProt Q12866)
Experiment: HTRF Kinase Activity Biochemical Assay (KinEASE-TK)
Settings: 10 uM ATP
Method in brief: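 Recombinant human MER (528-end) phosphorylated biotin-TK peptide substrate, 1 h at room temperature. Reaction stopped with detection buffer containing 0.375 nM Eu3+-cryptate anti-TK antibody and 0.062 uM streptavidin-XL665, 1 h further. Activity taken as HTRF ratio 665/620 nm ×10,000, 340 nm excitation.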

human MER (528-end), sequence (Q12866 528-999 limits assumed): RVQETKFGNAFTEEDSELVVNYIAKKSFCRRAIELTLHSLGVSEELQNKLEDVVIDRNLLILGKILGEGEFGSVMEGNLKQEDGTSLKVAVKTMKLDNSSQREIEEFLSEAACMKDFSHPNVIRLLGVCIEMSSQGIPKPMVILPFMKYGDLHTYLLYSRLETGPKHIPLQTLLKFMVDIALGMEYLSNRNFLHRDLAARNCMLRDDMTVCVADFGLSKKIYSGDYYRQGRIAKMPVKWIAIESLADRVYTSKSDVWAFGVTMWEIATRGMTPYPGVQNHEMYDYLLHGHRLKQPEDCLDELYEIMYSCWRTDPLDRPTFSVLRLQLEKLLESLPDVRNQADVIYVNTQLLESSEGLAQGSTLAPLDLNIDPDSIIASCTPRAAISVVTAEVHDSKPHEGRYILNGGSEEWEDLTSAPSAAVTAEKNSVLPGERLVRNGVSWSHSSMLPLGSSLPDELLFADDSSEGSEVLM

Molecule | IC50 [nM]
Cn1cc(-c2cnc(N)c(C(=O)N[C@@H]3CCN(C(=O)c4ccc(-c5ccc(C(C)(C)N6CCN(CCO)CC6)cc5)cc4)C3)c2)cn1 [Example 387, (R)-2-amino-N-(1-(4′-(2-(4-(2-hydroxyethyl)piperazin-1-yl)propan-2-yl)-[1,1′-biphenyl]-4-carbonyl)pyrrolidin-3-yl)-5-(1-methyl-1H-pyrazol-4-yl)nicotinamide] | 100 to 1000
Cn1cc(-c2cnc(N)c(C(=O)N[C@@H]3CCN(C(=O)Oc4ccc5ccccc5c4)C3)c2)cn1 [Example 103, naphthalen-2-yl (R)-3-(2-amino-5-(1-methyl-1H-pyrazol-4-yl)nicotinamido)pyrrolidine-1-carboxylate] | 100 to 1000
Cn1cc(-c2cnc(N)c(C(=O)N[C@@H]3CCN(C(=O)Nc4cc(C(F)(F)F)cc(C(F)(F)F)c4)C3)c2)cn1 [Example 5, (R)-2-amino-N-(1-((3,5-bis(trifluoromethyl)phenyl)carbamoyl)pyrrolidin-3-yl)-5-(1-methyl-1H-pyrazol-4-yl)nicotinamide] | > 1000
Cn1cc(-c2cnc(N)c(C(=O)N[C@@H]3CCN(C(=O)/C=C/c4cccc(Br)c4)C3)c2)cn1 [Example 428, (R,E)-2-amino-N-(1-(3-(3-bromophenyl)acryloyl)pyrrolidin-3-yl)-5-(1-methyl-1H-pyrazol-4-yl)nicotinamide] | > 1000
Nc1ncc(-c2cnn(C3CCNCC3)c2)cc1C(=O)N[C@@H]1CCN(C(=O)Nc2cc(Cl)cc(Cl)c2)C1 [Example 146, (R)-2-amino-N-(1-((3,5-dichlorophenyl)carbamoyl)pyrrolidin-3-yl)-5-(1-(piperidin-4-yl)-1H-pyrazol-4-yl)nicotinamide] | 10 to 100
CCOC(=O)C1CN(C(=O)c2cccc(-c3ccccc3)c2)CC1NC(=O)c1cc(-c2cnn(C)c2)cnc1N (stereo not drawn) [Example 688, ethyl 1-([1,1′-biphenyl]-3-carbonyl)-4-(2-amino-5-(1-methyl-1H-pyrazol-4-yl)nicotinamido)pyrrolidine-3-carboxylate] | > 1000
CN1CCN(CCn2cc(-c3cccc(OC(=O)N4CC[C@@H](NC(=O)c5cc(-c6cnn(C)c6)cnc5N)C4)c3)cn2)CC1 [Example 288, 3-(1-(2-(4-methylpiperazin-1-yl)ethyl)-1H-pyrazol-4-yl)phenyl (R)-3-(2-amino-5-(1-methyl-1H-pyrazol-4-yl)nicotinamido)pyrrolidine-1-carboxylate] | > 1000
Cn1cc(-c2cnc(N)c(C(=O)N[C@@H]3CCN(C(=O)/C=C/c4ccc(Br)cc4)C3)c2)cn1 [Example 427, (R,E)-2-amino-N-(1-(3-(4-bromophenyl)acryloyl)pyrrolidin-3-yl)-5-(1-methyl-1H-pyrazol-4-yl)nicotinamide] | 100 to 1000
Cn1cc(-c2cnc(N)c(C(=O)N[C@@H]3CCN(C(=O)c4ccc(Oc5ccc(CN6CCC[C@@H]6CO)cc5)cc4)C3)c2)cn1 [Example 449] | > 1000
Cn1cc(-c2cnc(N)c(C(=O)N[C@@H]3CCN(C(=O)Oc4cccc(-c5ccc(CN6CCCC(CO)C6)cc5)c4)C3)c2)cn1 (stereo partly drawn) [Example 320, 4′-((3-(hydroxymethyl)piperidin-1-yl)methyl)-[1,1′-biphenyl]-3-yl (3R)-3-(2-amino-5-(1-methyl-1H-pyrazol-4-yl)nicotinamido)pyrrolidine-1-carboxylate] | 100 to 1000
Cn1cc(-c2cnc(N)c(C(=O)N[C@@H]3CCN(C(=O)Nc4cccc(-c5ccc(CO)cc5)c4)C3)c2)cn1 [Example 259, (R)-2-amino-N-(1-((4′-(hydroxymethyl)-[1,1′-biphenyl]-3-yl)carbamoyl)pyrrolidin-3-yl)-5-(1-methyl-1H-pyrazol-4-yl)nicotinamide] | 100 to 1000
Cn1cc(-c2cnc(N)c(C(=O)N[C@@H]3CCN(C(=O)Oc4cccc(-c5ccc(CNCCN)cc5)c4)C3)c2)cn1 [Example 307, 4′-(((2-aminoethyl)amino)methyl)-[1,1′-biphenyl]-3-yl (R)-3-(2-amino-5-(1-methyl-1H-pyrazol-4-yl)nicotinamido)pyrrolidine-1-carboxylate] | 100 to 1000
Cn1cc(-c2cnc(N)c(C(=O)N[C@@H]3CCN(C(=O)c4ccc5ccccc5c4)C3)c2)cn1 [Example 405, (R)—N-(1-(2-naphthoyl)pyrrolidin-3-yl)-2-amino-5-(1-methyl-1H-pyrazol-4-yl)nicotinamide] | 100 to 1000
Cn1cc(-c2cnc(N)c(C(=O)N[C@@H]3CCN(C(=O)Nc4cccc(-c5cccc(CN)c5)c4)C3)c2)cn1 [Example 254, (R)-2-amino-N-(1-((3′-(aminomethyl)-[1,1′-biphenyl]-3-yl)carbamoyl)pyrrolidin-3-yl)-5-(1-methyl-1H-pyrazol-4-yl)nicotinamide] | 10 to 100
Cc1c(-c2ccc(C(=O)N3CC[C@@H](NC(=O)c4cc(-c5cnn(C)c5)cnc4N)C3)cc2)cnn1C [Example 517, (R)-2-amino-N-(1-(4-(1,5-dimethyl-1H-pyrazol-4-yl)benzoyl)pyrrolidin-3-yl)-5-(1-methyl-1H-pyrazol-4-yl)nicotinamide] | 10 to 100
Cn1cc(-c2cnc(N)c(C(=O)N[C@@H]3CCN(C(=O)c4cccc(-c5ccc(C(=O)N6CCNCC6)cc5)c4)C3)c2)cn1 [Example 465, (R)-2-amino-5-(1-methyl-1H-pyrazol-4-yl)-N-(1-(4′-(piperazine-1-carbonyl)-[1,1′-biphenyl]-3-carbonyl)pyrrolidin-3-yl)nicotinamide] | > 1000
Cn1cc(-c2cnc(N)c(C(=O)N[C@@H]3CCN(C(=O)c4ccc(-c5c(Cl)cccc5Cl)cc4)C3)c2)cn1 [Example 368, (R)-2-amino-N-(1-(2′,6′-dichloro-[1,1′-biphenyl]-4-carbonyl)pyrrolidin-3-yl)-5-(1-methyl-1H-pyrazol-4-yl)nicotinamide] | 100 to 1000
Cc1ccc(OC(=O)N2CC[C@@H](NC(=O)c3cc(-c4cnn(C)c4)cnc3N)C2)cc1C [Example 94, 3,4-dimethylphenyl (R)-3-(2-amino-5-(1-methyl-1H-pyrazol-4-yl)nicotinamido)pyrrolidine-1-carboxylate] | > 1000
Nc1ncc(-c2cnn(C3CCNCC3)c2)cc1C(=O)N[C@@H]1CCN(Cc2ccc(F)c(F)c2)C1 [Example 160, (R)-2-amino-N-(1-(3,4-difluorobenzyl)pyrrolidin-3-yl)-5-(1-(piperidin-4-yl)-1H-pyrazol-4-yl)nicotinamide] | > 1000
CN1CCN(c2ccc(-c3cnc(N)c(C(=O)N[C@@H]4CCN(C(=O)c5ccc(-c6ccccc6)cc5)C4)c3)cc2)CC1 [Example 556, (R)—N-(1-([1,1′-biphenyl]-4-carbonyl)pyrrolidin-3-yl)-2-amino-5-(4-(4-methylpiperazin-1-yl)phenyl)nicotinamide] | 10 to 100
Cn1cc(-c2cnc(N)c(C(=O)N[C@@H]3CCN(C(=O)Nc4ccc(Br)cc4)C3)c2)cn1 [Example 25, (R)-2-amino-N-(1-((4-bromophenyl)carbamoyl)pyrrolidin-3-yl)-5-(1-methyl-1H-pyrazol-4-yl)nicotinamide] | > 1000
Cn1cc(-c2cnc(N)c(C(=O)N[C@@H]3CCN(Cc4cccc(Br)c4)C3)c2)cn1 [Example 231, (R)-2-amino-N-(1-(3-bromobenzyl)pyrrolidin-3-yl)-5-(1-methyl-1H-pyrazol-4-yl)nicotinamide] | > 1000
CCNc1cc(OC(=O)N2CC[C@@H](NC(=O)c3cc(-c4cnn(C)c4)cnc3N)C2)ccc1C [Example 74, 3-(ethylamino)-4-methylphenyl (R)-3-(2-amino-5-(1-methyl-1H-pyrazol-4-yl)nicotinamido)pyrrolidine-1-carboxylate] | > 1000
CC(C)c1ccccc1-c1ccc(C(=O)N2CC[C@@H](NC(=O)c3cc(-c4cnn(C)c4)cnc3N)C2)cc1 [Example 350, (R)-2-amino-N-(1-(2′-isopropyl-[1,1′-biphenyl]-4-carbonyl)pyrrolidin-3-yl)-5-(1-methyl-1H-pyrazol-4-yl)nicotinamide] | 100 to 1000
CN1CCN(c2cc(-c3cccc(OC(=O)N4CC[C@@H](NC(=O)c5cc(-c6cnn(C)c6)cnc5N)C4)c3)ccn2)CC1 [Example 290, 3-(2-(4-methylpiperazin-1-yl)pyridin-4-yl)phenyl (R)-3-(2-amino-5-(1-methyl-1H-pyrazol-4-yl)nicotinamido)pyrrolidine-1-carboxylate] | > 1000
2-amino-N—((R)-1-(3-(((R)-2-(hydroxymethyl)pyrrolidin-1-yl)methyl)-[1,1′-biphenyl]-3-carbonyl)pyrrolidin-3-yl)-5-(1-methyl-1H-pyrazol-4-yl)nicotinamide [Example 462] | > 1000
Cn1cc(-c2cnc(N)c(C(=O)N[C@@H]3CCN(C(=O)Oc4cccc(-c5ccc(CN6CCC[C@H]6C(N)=O)cc5)c4)C3)c2)cn1 [Example 325, 4′-(((S)-2-carbamoylpyrrolidin-1-yl)methyl)-[1,1′-biphenyl]-3-yl (R)-3-(2-amino-5-(1-methyl-1H-pyrazol-4-yl)nicotinamido)pyrrolidine-1-carboxylate] | > 1000
CCN1CCC[C@@H]1CNCc1ccc(-c2cccc(OC(=O)N3CC[C@@H](NC(=O)c4cc(-c5cnn(C)c5)cnc4N)C3)c2)cc1 [Example 314, 4′-(((((R)-1-ethylpyrrolidin-2-yl)methyl)amino)methyl)-[1,1′-biphenyl]-3-yl (R)-3-(2-amino-5-(1-methyl-1H-pyrazol-4-yl)nicotinamido)pyrrolidine-1-carboxylate] | 100 to 1000
CC(=O)c1ccc(-c2ccc(C(=O)N3CC[C@@H](NC(=O)c4cc(-c5cnn(C)c5)cnc4N)C3)cc2)s1 [Example 538, (R)—N-(1-(4-(5-acetylthiophen-2-yl)benzoyl)pyrrolidin-3-yl)-2-amino-5-(1-methyl-1H-pyrazol-4-yl)nicotinamide] | 100 to 1000
Cn1cc(-c2cnc(N)c(C(=O)N[C@@H]3CCN(C(=O)c4ccc(I)cc4)C3)c2)cn1 [Example 400, (R)-2-amino-N-(1-(4-iodobenzoyl)pyrrolidin-3-yl)-5-(1-methyl-1H-pyrazol-4-yl)nicotinamide] | > 1000
